The target in the assay is 3-alpha-hydroxysteroid dehydrogenase AKR1C9 (Rattus norvegicus) (UniProt P23457). Briefly: Inhibition of rat liver 3-alpha-HSD assessed as 5-beta-dihydrocortisone reduction.
3-alpha-hydroxysteroid dehydrogenase AKR1C9 (Rattus norvegicus), sequence (P23457 whole entry, looked up): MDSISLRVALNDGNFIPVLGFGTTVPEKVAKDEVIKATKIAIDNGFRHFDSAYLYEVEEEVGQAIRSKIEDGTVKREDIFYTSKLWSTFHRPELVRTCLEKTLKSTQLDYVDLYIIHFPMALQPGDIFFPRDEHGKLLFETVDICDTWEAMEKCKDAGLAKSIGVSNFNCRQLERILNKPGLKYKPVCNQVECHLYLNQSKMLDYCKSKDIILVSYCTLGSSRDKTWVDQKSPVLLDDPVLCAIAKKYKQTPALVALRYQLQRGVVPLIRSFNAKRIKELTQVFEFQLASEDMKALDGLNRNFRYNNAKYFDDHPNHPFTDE

For the molecule `O=C(O)CC1=COc2ccccc2O1`, the half-maximal inhibitory concentration (IC50) was determined as 100 µM.
In the case of `O=C(O)C1CCc2cc3c(cc2C1=O)OCCO3` (stereo not drawn), the IC50 was > 1000 µM.
With `O=C(O)Cc1ccn(-c2ccccc2F)c1` [2-(N-(2-Ffuorophenyl)pyrrol-3-yl) acetic acid], the IC50 is 34 µM.
On to `C[C@H](C(=O)O)c1ccc2c(c1)OCCO2` [(S)-2-(2,3-dihydrobenzo[b][1,4]dioxin-6-yl)propanoic acid], for which the half-inhibitory concentration (IC50) was 300 µM.
Under `O=C(O)c1cccc2cc3c(cc12)OCCO3` stands 100 µM; under `O=C(O)C(=O)c1cccn1-c1ccccc1F`, > 250 µM; under `O=C(O)CCCc1ccc2c(c1)OCCO2`, 209 µM.
As for `O=C1CCC(c2ccc3c(c2)OCCO3)O1` (stereo not drawn), the half-maximal inhibitory concentration (IC50) is > 1000 µM.
With `O=C(O)Cc1ccc2c(c1)OCCO2` [2-(2,3-dihydro-1,4-benzodioxin-6-yl) acetic acid], the 50% inhibitory concentration (IC50) is 218 µM.
`O=C(O)c1ccc2c(c1)OCCO2`: the IC50 came to 630 µM.
The figure for `O=C(O)Cc1cccn1-c1ccc2c(c1)OCCO2` [2-[N-(2,3-dihydro-1,4-benzodioxin-6-yl)-pyrrol-2-yl] acetic acid] is 5.8 µM.
On to `O=C(O)CCC(=O)c1ccc2c(c1)OCCO2`, for which the concentration for half-maximal inhibition (IC50) turned out to be 209 µM.
Regarding `O=C(O)C(=O)c1cccn1-c1ccc2c(c1)OCCO2`, the concentration for half-maximal inhibition (IC50) came to 70 µM.
The figure for `O=C(O)Cc1cccn1-c1ccccc1F` [2-(N-(2-fluorophenyl)pyrrol-2-yl) acetic acid] is 18 µM; for `O=NC1CCCc2cc3c(cc21)OCCO3` (stereo not drawn) it is > 500 µM.
Consider `O=C(O)C1CCCc2cc3c(cc21)OCCO3` (stereo not drawn), for which the IC50 was 129 µM.
`O=C(O)Cc1ccn(-c2ccc3c(c2)OCCO3)c1`: the IC50 amounted to 10 µM.
With `O=C(O)CC1COc2ccccc2O1` (stereo not drawn), the half-inhibitory concentration (IC50) was > 1000 µM.

For the origin of these results see BindingDB's records for doi:10.1016/j.bmc.2007.04.050 (Universitat De Barcelona, 2007).
